Reference: patent US11161819B2, “Substituted tetrahydroisoquinoline compounds useful as GPR120 agonists” (Merck Sharp & Dohme Corp., priority 2016, dated 2021)

Target: T1, human GPR120 (Homo sapiens, UniProt Q5NUL3)
T1 construct: expressed in transfected cells
T1 sequence (Q5NUL3 1-361): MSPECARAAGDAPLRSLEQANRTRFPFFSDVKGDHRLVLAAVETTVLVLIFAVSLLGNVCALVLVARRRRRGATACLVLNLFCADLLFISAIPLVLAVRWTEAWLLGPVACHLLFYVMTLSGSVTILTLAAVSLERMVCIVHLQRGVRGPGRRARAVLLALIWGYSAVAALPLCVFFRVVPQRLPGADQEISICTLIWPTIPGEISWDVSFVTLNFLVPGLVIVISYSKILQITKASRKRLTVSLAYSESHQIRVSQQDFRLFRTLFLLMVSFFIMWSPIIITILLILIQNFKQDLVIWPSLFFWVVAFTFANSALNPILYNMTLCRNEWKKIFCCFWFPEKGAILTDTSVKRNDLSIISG
Test: Human GPR120 IP1 Assay (inositol phosphate turnover, CisBio IP-One kit)
Format: cell-based
Settings: IP1 accumulation in CHO-K1 cells stably expressing the short form of human GPR120; 60 min compound incubation; 4-parameter fit; read-out: hGPR120 EC50
Description: Human GPR120 IP1 Assay Principle
The binding of small molecule agonists to the G-protein-coupled receptor GPR120 activates phospholipase C, and leads to the generation of inositol 1,4,5-trisphosphate (InsP3 or IP3). IP3 is subsequently de-phosphorylated to IP1, which accumulates in cells and is stable in the presence of lithium chloride.
In the present method, agonist-induced activation of the human GPR120 receptor was monitored by measuring the accumulation of IP1 in CHO-K1 cells that were stably expressing the short form of human GPR120 (Accession #NM_001195755). Following agonist addition, GPR120 activation and subsequent accumulation of IP1 was measured using a homogeneous Time Resolved Fluorescence-based ELISA commercially available from CisBio (IP-one ELISA Kit). The IP-One ELISA was a competitive immunoassay which uses IP1 labeled with […] and a terbium cryptate-labeled anti-IP1 monoclonal antibody. […] The signal loss was then back calculated to IP1 concentration using an IP1 standard curve. Determination of IP1 concentration was a direct measure of GPR120 activation and was used to determine compound potency (EC50).
Generation of GPR120-Expressing Cells:
Human GPR120 stable cell-lines were generated in CHO cells. The expression plasmids were transfected using lipofectamine (Life Technologies) following manufacturer's instructions. Stable cell-lines were generated following drug selection and single cell cloning.
Inositol Phosphate Turnover (IP1) Assay:
The assay was performed in 384-well format. CHO cells stably expressing human GPR120 were plated at […] per well in growth medium (DMEM/F12, 10% fetal calf serum). Cell plates were then incubated 16 hours at 37 degrees in a 5% CO2 incubator. Measurement of Inositol Phosphate Turnover (IP1) was performed using the CisBio IP-One kit (Part number 62IPAPEB). After the 16 hour incubation, the growth media was removed by centrifugation using the BlueWasher (AusWasher GUI Ver. v1.0.1.8) Protocol #21-“Light Dry” and 10 ul of stimulation buffer (prepared as described in the kit) was added to each well. In a separate plate, compounds were diluted in DMSO (200-fold over the final concentration in the assay well) and 50 nl was acoustically transferred to the appropriate well in the assay cell plate. The plates were then incubated for 60 minutes at 37 degrees in a 5% CO2 incubator. 10 ul of detection buffer (also prepared as described in the IP-One kit) was added to each well and the plates were incubated at room temperature for 60 minutes in the dark. The plates were then read in a Perkin Elmer EnVision or equivalent reader able to measure FRET. Fluorescent ratio of emission at 665 and 620 nm was then converted to the IP1 concentration by back calculating from an IP1 standard curve prepared at the time of the assay. The data was normalized to % activity using a reference compound, and the EC50 values were determined using a standard 4-parameter fit.

| SMILES | EC50 [nM] |
| --- | --- |
| O=C(O)CCc1ccc2c(c1)CCN(c1cc(OC(F)(F)F)ccc1F)C2 [Example 27, 3-{2-[2-fluoro-5-(trifluoro-methoxy)phenyl]-1,2,3,4-tetrahydro-isoquinolin-6-yl}propanoic acid] | 61 |
| COc1cc(F)c(N2CCc3cc(CCC(=O)O)ccc3C2)cc1Oc1ccc(C)cn1 [Example 28, 3-(2-{2-fluoro-4-methoxy-5-[(5-methylpyridin-2-yl)oxy]phenyl}-1,2,3,4-tetrahydroisoquinolin-6-yl)propanoic acid] | 169 |
| CC1c2ccc(CCC(=O)O)cc2CCN1c1cc(OC2CCC2)cc(F)c1F (stereo not drawn) [Example 32, 3-{2-[5-(cyclobutyloxy)-2,3-difluorophenyl]-1-methyl-1,2,3,4-tetrahydroisoquinolin-6-yl}-propanoic acid] | 233 |
| O=C(O)CCc1ccc2c(c1)CCN(c1cc(Oc3cnccn3)ccc1F)C2 [Example 33, 3-{2-[2-fluoro-5-(pyrazin-2-yloxy)phenyl]-1,2,3,4-tetrahydroiso-quinolin-6-yl}propanoic acid] | 192 |
| CO[C@H]1C[C@H](Oc2cc(C#N)c(F)c(N3CCc4cc(CCC(=O)O)ccc4C3)c2)C1 [Example 34, 3-(2-{3-cyano-2-fluoro-5-[(trans-3-methoxycyclobutyl)oxy]phenyl}-1,2,3,4-tetrahydroisoquinolin-6-yl)propanoic acid] | 184 |
| CC1c2ccc(CCC(=O)O)cc2CCN1c1cc(OC2CCC2)ccc1F (stereo not drawn) [Example 36, 3-{2-[5-(cyclobutyloxy)-2-fluorophenyl]-1-methyl-1,2,3,4-tetrahydroisoquinolin-6-yl}propanoic acid] | 348 |
| CC1c2ccc(CCC(=O)O)cc2CCN1c1cc(OC2CCC2)cc(F)c1Cl (stereo not drawn) [Example 37, 3-{2-[2-chloro-5-(cyclobutyloxy)-3-fluorophenyl]-1-methyl-1,2,3,4-tetrahydroisoquinolin-6-yl}-propanoic acid] | 377 |
| O=C(O)CCc1ccc2c(c1)CCN(c1cccc(SC3CCC3)n1)C2 [Example 38, 3-{2-[6-(cyclobutylsulfanyl)pyridin-2-yl]-1,2,3,4-tetrahydroiso-quinolin-6-yl}propanoic acid] | 405 |
| CC1c2ccc(CCC(=O)O)cc2CCN1c1cc(OC2CCC2)ccc1F (stereo not drawn) [Example 39, 3-{2-[5-(cyclobutyloxy)-2-fluorophenyl]-1-methyl-1,2,3,4-tetra-hydroisoquinolin-6-yl}propanoic acid] | 417 |
| O=C(O)CCc1ccc2c(c1)CCN(c1cncc(OC3CCC3)n1)C2 [Example 41, 3-{2-[6-(cyclobutyloxy)pyrazin-2-yl]-1,2,3,4-tetrahydroiso-quinolin-6-yl}propanoic acid] | 569 |

Further molecules by falling EC50, results first:

| EC50 [nM] | SMILES |
| --- | --- |
| 463 | O=C(O)CCc1ccc2c(c1)CCN(c1cc(Cl)c(C(F)(F)F)c(Cl)c1)C2 [Example 40, 3-{2-[3,5-dichloro-4-(trifluoro-methyl)phenyl]-1,2,3,4-tetrahydro-isoquinolin-6-yl}propanoic acid] |
| 312 | O=C(O)CCc1ccc2c(c1)CCN(c1cc(Oc3ccc(F)cn3)cc(C(F)F)c1F)C2 [Example 35, 3-(2-{3-(difluoromethyl)-2-fluoro-5-[(5-fluoropyridin-2-yl)oxy]phenyl}-1,2,3,4-tetrahydroisoquinolin-6-yl) propanoic acid] |
| 182 | COc1cc(F)c(N2CCc3cc(CCC(=O)O)ccc3C2)cc1OC1CCC1 [Example 31, 3-{2-[5-(cyclobutyloxy)-2-fluoro-4-methoxyphenyl]-1,2,3,4-tetrahydroisoquinolin-6-yl}-propanoic acid] |
| 171 | O=C(O)CCc1ccc2c(c1)CCN(c1cc3c(C(F)(F)F)noc3cc1F)C2 [Example 29, 3-{2-[6-fluoro-3-(trifluoromethyl)-1,2-benzisoxazol-5-yl]-1,2,3,4-tetrahydroisoquinolin-6-yl}-propanoic acid] |
| 134 | O=C(O)CCc1cc2c(cc1F)CN(c1cc(OC(F)(F)F)ccc1F)CC2 [Example 30, 3-{7-fluoro-2-[2-fluoro-5-(trifluoromethoxy)phenyl]-1,2,3,4-tetrahydroisoquinolin-6-yl}-propanoic acid] |
